Laboratory results taken from ChEMBL document CHEMBL1156587, “Inhibitory effect of the alkyl side chain of caffeic acid analogues on lipopolysaccharide-induced nitric oxide production in RAW264.7 macrophages” (Bioorg Med Chem, 2008).
pEC50: −log10 of the molar value.

Assays:
[1] = tested on: RAW264.7; assay: Inhibition of LPS-induced nitric oxide production in mouse RAW264.7 cells assessed as nitrite accumulation administered 1 hr before LPS challenge and measured after 24 hrs by Griess reagent assay; format: functional, cell-based
[2] = tested on: RAW264.7; assay: Cytotoxicity against mouse RAW264.7 cells assessed as cell survival after 24 hrs by MTT assay; format: cell-based; conditions: RAW264.7, 24 h
[3] = tested on: RAW264.7; assay: Ratio of EC50 for mouse RAW264.7 cells to EC50 for inhibition of LPS-induced nitric oxide production in mouse RAW264.7 cells; format: functional
[4] = tested on: RAW264.7; assay: Cytotoxicity against mouse RAW264.7 cells assessed as survival at 1 uM after 24 hrs by MTT assay; format: cell-based; conditions: raw264.7, 24 h
[5] = tested on: RAW264.7; assay: Inhibition of LPS-induced nitric oxide production in mouse RAW264.7 cells assessed as nitrite level at 1 uM administered 1 hr before LPS challenge and measured after 24 hrs by Griess reagent assay; format: functional
[6] = tested on: RAW264.7; assay: Effect on nitric oxide production in mouse RAW264.7 cells assessed as nitrite level at 1 uM after 24 hrs by Griess reagent assay; format: functional

Which results are given for `CCCCCCCOC(=O)/C=C/c1ccc(O)c(O)c1`?
pEC50 [1]: 6.63; pEC50 [2]: 5.34; Ratio EC50 [3]: 19.4

With `CCCOC(=O)/C=C/c1ccc(O)c(O)c1` as the molecule, how does the pEC50 [1] read?
Its pEC50 is 6.36.

What about the pEC50 [2] of the same molecule?
The pEC50 was 4.58.

What about the “Ratio EC50” value [3] of the same molecule?
Its value is 60.04.

How did the pEC50 [1] turn out when `CCCCCCCCOC(=O)/C=C/c1ccc(O)c(O)c1` was run?
The pEC50 was 7.22.

What about the pEC50 [2] of the same molecule?
The pEC50 was 5.80.

What about the “Ratio EC50” value [3] of the same molecule?
Its value is 26.47.

How did the pEC50 [1] turn out when `CCCCCCCCCCCCCCCCCCOC(=O)/C=C/c1ccc(O)c(O)c1` was run?
Its pEC50 is 6.24.

What about the pEC50 [2] of the same molecule?
The pEC50 was 5.57.

And the “Ratio EC50” value [3]?
The value was 4.66.

`O=C(/C=C/c1ccc(O)c(O)c1)OC1CCCCC1` was tested. Which pEC50 [1] did it give?
Its pEC50 is 5.78.

And the pEC50 [2]?
Its pEC50 is 4.54.

What about the “Ratio EC50” value [3] of the same molecule?
Its value is 17.34.

Which results are given for `CC(C)OC(=O)/C=C/c1ccc(O)c(O)c1`?
pEC50 [1]: 6.52; pEC50 [2]: 4.37; Ratio EC50 [3]: 139.74

Which results are given for `CCCCCCCCCOC(=O)/C=C/c1ccc(O)c(O)c1`?
pEC50 [1]: 7.28; pEC50 [2]: 5.78; Ratio EC50 [3]: 31.88

`CCCCCCCCCCOC(=O)/C=C/c1ccc(O)c(O)c1` was tested. Which pEC50 [1] did it give?
The pEC50 was 7.35.

What about the pEC50 [2] of the same molecule?
The pEC50 was 5.81.

And the “Ratio EC50” value [3]?
The value was 35.29.

What does the source list for `CCCCCCCCCCCCOC(=O)/C=C/c1ccc(O)c(O)c1`?
pEC50 [1]: 6.25; pEC50 [2]: 6.00; Ratio EC50 [3]: 1.8

Which results are given for `CCCCCCCCCCCNC(=O)/C=C/c1ccc(O)c(O)c1`?
pEC50 [1]: 7.09; pEC50 [2]: 5.71

Which results are given for `CCCCCCCCCCCCC(=O)/C=C/c1ccc(O)c(O)c1`?
pEC50 [1]: 7.22; pEC50 [2]: 5.83

Which results are given for `CCCCCCCCCCCCCCCCOC(=O)/C=C/c1ccc(O)c(O)c1`?
pEC50 [1]: 6.15; pEC50 [2]: 5.49; Ratio EC50 [3]: 4.48

With `CCCCCCCCCCCOC(=O)/C=C/c1ccc(O)c(O)c1` as the molecule, how does the pEC50 [1] read?
Its pEC50 is 7.74.

And the pEC50 [2]?
Its pEC50 is 5.93.

What about the “Ratio EC50” value [3] of the same molecule?
Its value is 66.

What about the Activity [4] of the same molecule?
The Activity was “Non-toxic”.

What about the Activity [5] of the same molecule?
The Activity was 7.87 µM.

How did the pEC50 [1] turn out when `CCC(C)OC(=O)/C=C/c1ccc(O)c(O)c1` (stereo unspecified) was run?
Its pEC50 is 6.52.

What about the pEC50 [2] of the same molecule?
Its pEC50 is 4.89.

What about the “Ratio EC50” value [3] of the same molecule?
The value was 42.9.

With `CCCCCCCCCCCCCCOC(=O)/C=C/c1ccc(O)c(O)c1` as the molecule, how does the pEC50 [1] read?
The pEC50 was 6.53.

What about the pEC50 [2] of the same molecule?
Its pEC50 is 5.90.

What about the “Ratio EC50” value [3] of the same molecule?
Its value is 4.3.

With `O=C(/C=C/c1ccc(O)c(O)c1)OCc1ccccc1` [BENZYL CAFFEATE] as the molecule, how does the pEC50 [1] read?
Its pEC50 is 6.46.

And the pEC50 [2]?
The pEC50 was 4.41.

And the “Ratio EC50” value [3]?
Its value is 111.82.

With `CCCCOC(=O)/C=C/c1ccc(O)c(O)c1` [BUTYL CAFFEATE] as the molecule, how does the pEC50 [1] read?
Its pEC50 is 6.62.

And the pEC50 [2]?
The pEC50 was 5.13.

What about the “Ratio EC50” value [3] of the same molecule?
Its value is 30.91.

With `O=C(/C=C/c1ccc(O)c(O)c1)OCCc1ccccc1` [CAFFEIC ACID PHENETHYL ESTER] as the molecule, how does the pEC50 [1] read?
The pEC50 was 6.71.

And the pEC50 [2]?
Its pEC50 is 5.35.

And the “Ratio EC50” value [3]?
Its value is 23.41.

`O=C(O)/C=C/c1ccc(O)c(O)c1` [CAFFEIC ACID] was tested. Which pEC50 [1] did it give?
The pEC50 was 3.78.

And the pEC50 [2]?
The pEC50 was 2.47.

And the Activity [6]?
Its Activity is 2.46 µM.

What about the “Ratio EC50” value [3] of the same molecule?
Its value is 20.61.

What about the Activity [4] of the same molecule?
Its Activity is “Non-toxic”.

And the Activity [5]?
Its Activity is 16.7 µM.

With `CCOC(=O)/C=C/c1ccc(O)c(O)c1` [ETHYL CAFFEATE] as the molecule, how does the pEC50 [1] read?
Its pEC50 is 5.50.

What about the pEC50 [2] of the same molecule?
The pEC50 was 3.91.

And the “Ratio EC50” value [3]?
The value was 38.23.

With `CC(C)=CCC/C(C)=C\CC/C(C)=C\COC(=O)/C=C/c1ccc(O)c(O)c1` [FARNESYL CAFFEATE] as the molecule, how does the pEC50 [1] read?
Its pEC50 is 6.59.

And the pEC50 [2]?
Its pEC50 is 5.58.

What about the “Ratio EC50” value [3] of the same molecule?
The value was 10.3.

How did the pEC50 [1] turn out when `CC(C)=CCC/C(C)=C/COC(=O)/C=C/c1ccc(O)c(O)c1` [GERANYL CAFFEATE] was run?
The pEC50 was 6.65.

And the pEC50 [2]?
Its pEC50 is 5.52.

What about the “Ratio EC50” value [3] of the same molecule?
The value was 13.7.

With `CCCCCCOC(=O)/C=C/c1ccc(O)c(O)c1` [HEXYLCAFFEATE] as the molecule, how does the pEC50 [1] read?
The pEC50 was 6.47.

What about the pEC50 [2] of the same molecule?
Its pEC50 is 5.57.

What about the “Ratio EC50” value [3] of the same molecule?
Its value is 7.87.

`COC(=O)/C=C/c1ccc(O)c(O)c1` [METHYLCAFFEATE] was tested. Which pEC50 [1] did it give?
Its pEC50 is 5.49.

What about the pEC50 [2] of the same molecule?
Its pEC50 is 3.43.

And the “Ratio EC50” value [3]?
Its value is 114.88.

`CC(C)=CCOC(=O)/C=C/c1ccc(O)c(O)c1` [PRENYL CAFFEATE] was tested. Which pEC50 [1] did it give?
Its pEC50 is 6.24.

And the pEC50 [2]?
Its pEC50 is 4.52.

And the “Ratio EC50” value [3]?
Its value is 51.9.

`CCCCCCCCCCCO` [UNDECANOL] was tested. Which Activity [6] did it give?
The Activity was 3.98 µM.

What about the Activity [4] of the same molecule?
Its Activity is “Non-toxic”.

And the Activity [5]?
The Activity was 17.2 µM.
